Data set [1] has as its system Staphylococcus aureus. Description: Antibacterial activity against methicillin-resistant Staphylococcus aureus infected in ICR mouse model of subcutaneous abscess assessed as reduction in infiltration of inflammatory cells at 25 mg/kg, sc measured at 48 hrs post-injection by H and E/Masson staining based analysis. The data set is classed as functional, organism-based.

The subject of data set [2] is Staphylococcus aureus. Description: Antibacterial activity against methicillin-resistant Staphylococcus aureus infected in ICR mouse model of subcutaneous abscess assessed as effect on skin abscesses at 25 mg/kg, sc measured at 48 hrs post-injection. The data set is classed as functional, organism-based.
Data set [3] relates to Cell membrane. Briefly: Disruption of cell membrane in methicillin-resistant Staphylococcus aureus at 4 times MIC measured after 4 hrs by scanning electron microscopic analysis. The data set is classed as subcellular.
In data set [4] the test system is Cell membrane. Briefly: Disruption of cell membrane in methicillin-resistant Staphylococcus aureus assessed as PI-positive bacteria at 8 times MIC measured after 30 mins by PI staining based flow cytometry analysis (reference value: 7.49 %). The class given is subcellular. For orientation: Flow cytometry measures light scatter and fluorescence of single cells or particles in a stream.

Data set [5] deals with L929. Description: Cytotoxicity against mouse L929 cells assessed as reduction in cell viability at 100 microg/mL incubated for 24 hrs by MTT assay. The class given is toxicity, cell-based. Particulars: l929, 24 h, dose 100 µg/ml.
Data set [6] relates to Staphylococcus aureus. Briefly: Antimicrobial activity against Methicillin-resistant Staphylococcus aureus assessed as reduction in bacterial growth at 4 times MIC measured for 0.5 to 24 hrs by time-kill kinetics assay. The data set is classed as functional, organism-based. Particulars: time 0.5-24 hrs.
The subject of data set [7] is Mus musculus. Description: Anti-inflammatory activity against subcutaneous abscess ICR mouse model infected with methicillin-resistant Staphylococcus aureus assessed as reduction in TNF-alpha level at 25 mg/kg, sc measured at 48 hrs post-injection by ELISA method. The class given is functional, organism-based. (In an ELISA, binding on a coated surface is turned into a signal by an enzyme label.)

Data set [8] concerns Staphylococcus aureus. Briefly: Antibacterial activity against methicillin-resistant Staphylococcus aureus infected in ICR mouse model of subcutaneous abscess assessed as bacterial load at 25 mg/kg, sc measured at 48 hrs post-injection. The class given is functional.
Data set [9] relates to Cell membrane. Briefly: Disruption of cell membrane in methicillin-resistant Staphylococcus aureus at 8 times MIC measured after 4 hrs by scanning electron microscopic analysis. The class given is subcellular.
Data set [10] relates to Staphylococcus aureus. Description: Antimicrobial activity against Staphylococcus aureus ATCC 25923 assessed as inhibition of bacterial growth measured after 20 hrs by CLSI protocol based Muller Hinton broth assay. The data set is classed as functional.
In data set [11] the test system is Staphylococcus aureus. Description: Antibacterial activity against methicillin-resistant Staphylococcus aureus infected in ICR mouse model of subcutaneous abscess assessed as bacterial elimation at 25 mg/kg, sc measured at 48 hrs post-injection relative to control. The data set is classed as functional.
The subject of data set [12] is Cell membrane. Description: Disruption of cell membrane in methicillin-resistant Staphylococcus aureus assessed as PI-positive bacteria at 2 times MIC measured after 30 mins by PI staining based flow cytometry analysis (reference value: 7.49 %). The data set is classed as subcellular.
Data set [13] concerns Mus musculus. Description: Anti-inflammatory activity against subcutaneous abscess ICR mouse model infected with methicillin-resistant Staphylococcus aureus assessed as reduction in IL-6 level at 25 mg/kg, sc measured at 48 hrs post-injection by ELISA method. The data set is classed as functional, organism-based.
For a further data set, the system named is Acinetobacter baumannii. Description: Antimicrobial activity against Acinetobacter baumannii ATCC 19606 assessed as inhibition of bacterial growth measured after 20 hrs by CLSI protocol based Muller Hinton broth assay. The data set is classed as functional.
Data set [14] has as its system Staphylococcus aureus. Briefly: Antimicrobial activity against Methicillin-resistant Staphylococcus aureus ATCC 33591 measured after 5 to 25 passages at sub-MIC incubated for 12 hrs. The class given is functional, organism-based.
Data set [15] concerns Escherichia coli. Description: Antimicrobial activity against Escherichia coli ATCC 25922 assessed as inhibition of bacterial growth measured after 20 hrs by CLSI protocol based Muller Hinton broth assay. The class given is functional.
Data set [16] has as its system Staphylococcus aureus. Description: Antimicrobial activity against Methicillin-resistant Staphylococcus aureus assessed as reduction in bacterial growth at 4 times MIC measured after 8 hrs by time-kill kinetics assay relative to control. The data set is classed as functional. Also noted: scale not given: the % may be the effect or the level left.
Data set [17] in a line: Toxicity in ICR mouse assessed as pathological change in liver at 25 mg/kg, sc administered as single dose and measured at 2 hrs post-infection by H and E staining based analysis. The class given is organism-based. Particulars: in vivo.
Data set [18] in a line: Toxicity in ICR mouse assessed as pathological change in kidney at 25 mg/kg, sc administered as single dose and measured at 2 hrs post-infection by H and E staining based analysis. Particulars: in vivo. The class given is organism-based.
Data set [19] has as its system Staphylococcus aureus. Description: Antimicrobial activity against Methicillin-resistant Staphylococcus aureus ATCC 43300 assessed as inhibition of bacterial growth measured after 20 hrs by CLSI protocol based Muller Hinton broth assay. The class given is functional.
Another data set has as its system Pseudomonas aeruginosa. Description: Antimicrobial activity against Pseudomonas aeruginosa ATCC 27853 assessed as inhibition of bacterial growth measured after 20 hrs by CLSI protocol based Muller Hinton broth assay. The class given is functional.
Data set [20] is described as follows: Toxicity in ICR mouse assessed as pathological change in skin at 25 mg/kg, sc administered as single dose and measured at 2 hrs post-infection by H and E staining based analysis. Particulars: in vivo. The data set is classed as organism-based.
Data set [21] deals with Staphylococcus aureus. Briefly: Antibacterial activity against methicillin-resistant Staphylococcus aureus infected in ICR mouse model of subcutaneous abscess assessed as effect on lesions at 25 mg/kg, sc measured at 48 hrs post-injection. The class given is functional, organism-based.
The test system of data set [22] is Cell membrane. Description: Disruption of cell membrane in methicillin-resistant Staphylococcus aureus assessed as PI-positive bacteria at 4 times MIC measured after 30 mins by PI staining based flow cytometry analysis (reference value: 7.49 %). The data set is classed as subcellular.
A short description of data set [23]: Toxicity in ICR mouse assessed as pathological change in heart at 25 mg/kg, sc administered as single dose and measured at 2 hrs post-infection by H and E staining based analysis. Particulars: in vivo. The data set is classed as organism-based.
The nature of data set [24]: Toxicity in ICR mouse assessed as compatible skin at 25 mg/kg, sc administered as single dose and measured at 2 hrs post-infection by H and E staining based analysis. The data set is classed as organism-based. Particulars: in vivo.
Data set [25] in a line: Hemolytic activity in Sprague-Dawley rat Red blood cells at 200 ug/ml incubated for 1 hr by absorbance based analysis. The class given is toxicity, cell-based. Particulars: erythrocyte, dose 200 µg/ml.
In data set [26] the test system is Staphylococcus aureus. Briefly: Antimicrobial activity against Methicillin-resistant Staphylococcus aureus assessed as reduction in bacterial load at 4 times MIC measured after 4 hrs by time-kill kinetics assay. The data set is classed as functional.
The subject of another data set is Enterococcus faecalis. Briefly: Antimicrobial activity against Enterococcus faecalis ATCC 19433 assessed as inhibition of bacterial growth measured after 20 hrs by CLSI protocol based Muller Hinton broth assay. The class given is functional.
The subject of a further data set is Enterococcus gallinarum. Briefly: Antimicrobial activity against Enterococcus gallinarum ATCC 49573 assessed as inhibition of bacterial growth measured after 20 hrs by CLSI protocol based Muller Hinton broth assay. The data set is classed as functional.
The nature of data set [27]: Toxicity in ICR mouse assessed as pathological change in lung at 25 mg/kg, sc administered as single dose and measured at 2 hrs post-infection by H and E staining based analysis. Particulars: in vivo. The data set is classed as organism-based.
Data set [28] deals with Staphylococcus aureus. Description: Antibacterial activity against methicillin-resistant Staphylococcus aureus infected in ICR mouse model of subcutaneous abscess assessed as reduction in IL-6 level at 25 mg/kg, sc measured at 48 hrs post-injection by ELISA method. The data set is classed as functional, organism-based.
Data set [29] relates to Escherichia coli. Description: Antimicrobial activity against Escherichia coli ATCC 25922 measured after 5 to 25 passages at sub-MIC incubated for 12 hrs. The data set is classed as functional, organism-based.
The nature of data set [30]: Toxicity in ICR mouse assessed as pathological change in spleen at 25 mg/kg, sc administered as single dose and measured at 2 hrs post-infection by H and E staining based analysis. The data set is classed as organism-based. Particulars: in vivo.
The subject of data set [31] is L929. Briefly: Cytotoxicity against mouse L929 cells assessed as reduction in cell viability at 25 microg/mL incubated for 24 hrs by MTT assay. Particulars: l929, 24 h, dose 25 µg/ml. The class given is toxicity, cell-based.
The nature of data set [32]: Hemolytic activity in Sprague-Dawley rat Red blood cells at 100 ug/ml incubated for 1 hrs by absorbance based analysis. Particulars: erythrocyte, dose 100 µg/ml. The class given is toxicity, cell-based.

Values after ≈ are worked out from the molar mass of the structure shown. Active and inactive are the calls of the source. The calls are words filed in the database; no cut-off is given here. Numbered stars: 1 amine (or outer) side, 2 acyl side, 3 side chain; on linkers, the order of the positions; unused ones are H or OH. Peptide text beside a SMILES is read from it. * marks the point of attachment. X1 = O=C(O)c1cn(C2CC2)c2cc(N3CCN(*)CC3)c(F)cc2c1=O; NH(CH2)11CH3 = CCCCCCCCCCCCN*; Suc = O=C(CCC(=O)[*:2])[*:1]

For `O=C(O)c1cn(C2CC2)c2cc(N3CCNCC3)c(F)cc2c1=O` [CIPROFLOXACIN], the values for the Activity result in the data set with Staphylococcus aureus [1], with Cell membrane [4] and in the data set with L929 [5] were “Active; Partial Reduction In Inflammation”, 9.46% and “Non-toxic”, respectively. For the same molecule, the result in the data set on Staphylococcus aureus [2], with Cell membrane [3] and with Staphylococcus aureus [6] was inactive. For the same molecule, in the data set on Mus musculus [7], the outcome was Active.

For orientation: MIC means the least concentration at which growth counts as inhibited. Turning to `CCCCCCCCCNC(=O)[C@H](CCCCN)NC(=O)[C@H](CCCNC(=N)N)NC(=O)[C@H](CCCCN)NC(=O)c1ccc(C(=O)N2CCN(c3cc4c(cc3F)c(=O)c(C(=O)O)cn4C3CC3)CC2)cc1`, the Activity was 4.4 log10CFU/ml in the data set with Staphylococcus aureus [8]; 99.99% with Staphylococcus aureus [11]; 12% in the data set on Cell membrane [12]; 100% with Staphylococcus aureus [16]; “Non-toxic” in data set [17]; 58.4% in the data set on Cell membrane [4]. Besides, the Activity entry was “Non-toxic” in data set [18]; “Non-toxic” in data set [20]; 26.8% with Cell membrane [22]; “Non-toxic” in data set [23]; “Non-toxic” in [24]; “Non-toxic” in data set [25]. For the same molecule, the Activity in the data set with Staphylococcus aureus [26] is given as 3.6 log10CFU/ml; in data set [27], “Non-toxic”; in the data set with L929 [5], “Non-toxic”; in [30] it was “Non-toxic”. Besides, the outcome in the data set with Staphylococcus aureus [1], in the data set with Cell membrane [9], in the data set with Mus musculus [13], in the data set on Staphylococcus aureus [14], in the data set on Cell membrane [3] and in the data set with Staphylococcus aureus [21] was Active. The result with Staphylococcus aureus [28], with Escherichia coli [29] and in the data set on Mus musculus [7] was Active. Further, the MIC in the data set on Staphylococcus aureus [10] worked out at 1.56 µg/mL (≈ 1.53 µM); with Acinetobacter baumannii, 6.25 µg/mL (≈ 6.14 µM); in the data set with Escherichia coli [15], 3.12 µg/mL (≈ 3.07 µM); in the data set with Staphylococcus aureus [19], 6.25 µg/mL (≈ 6.14 µM); with Pseudomonas aeruginosa, 3.12 µg/mL (≈ 3.07 µM); in the data set with Enterococcus faecalis, 12.5 µg/mL (≈ 12.3 µM). For the same molecule, in the data set on Enterococcus gallinarum, the MIC turned out to be 12.5 µg/mL (≈ 12.3 µM).

On to `CCCCCCCCCCCCNC(=O)[C@H](CCCCN)NC(=O)[C@H](CCCCN)NC(=O)[C@H](CCCCN)NC(=O)[C@H](CO)NC(=O)CCC(=O)N1CCN(c2cc3c(cc2F)c(=O)c(C(=O)O)cn3C2CC2)CC1` ({X1-Suc}-SKKK-{NH(CH2)11CH3}), for which the MIC worked out at 6.25 µg/mL (≈ 5.84 µM) in the data set with Staphylococcus aureus [10]; 12.5 µg/mL (≈ 11.7 µM) in the data set on Acinetobacter baumannii; 25 µg/mL (≈ 23.4 µM) with Escherichia coli [15]; 12.5 µg/mL (≈ 11.7 µM) in the data set on Staphylococcus aureus [19]; 50 µg/mL (≈ 46.7 µM) in the data set with Pseudomonas aeruginosa; 25 µg/mL (≈ 23.4 µM) with Enterococcus faecalis. Moreover, the MIC with Enterococcus gallinarum was determined as 25 µg/mL (≈ 23.4 µM). Also, the Activity result (in the data set on L929 [31]; in data set [32]) was “Toxic” each time.
